Results on one compound are retold here after US20260272895A1, “METHODS AND KITS FOR DELIVERY OF COMPOUNDS INTO CELLS” (Yale University, priority 2023, published 2026).

In experiment [1] the test system is retinal endothelial cells. Description: Retinal endothelial labeling after intravitreal / intraocular injection. The experiment is classed as in vivo, mouse. To be noted: intravitreal/intraocular injection (eEDiTS 50 μM in FIG. 14D).
Experiment [2] concerns cancer cells in freshly excised breast surgical tissue. The experiment in a line: Injection into freshly excised cancerous breast tissue. The source says:
Injection of compound 1 into freshly excised cancerous breast tissue leads to rapid entry into cancer cells (red). Blue represents nuclear labeling with Hoechst dye.

In the case of `O=S(=O)([O-])c1cc(S(=O)(=O)O)ccc1C1=c2cc3c4c(c2Oc2cc(Br)ccc21)CCC[N+]=4CCC3` [Compound 1, 2-(12-bromo-1,2,3,5,6,7-hexahydrochromeno[2,3-f]pyrido[3,2,1-ij]quinolin-4-ium-9-yl)-5-sulfobenzenesulfonate], in experiment [1], the retinal endothelial labeling entry is “rapid and highly specific labeling of retinal vasculature”. The “entry into breast cancer cells” value in experiment [2] is “readily enters cancer cells”.
